Results as given in US9932410B2, “Human neutralizing anti-kit antibodies and uses thereof” (INSERM (Institut National de la Sante et de la Recherche …, priority 2013, dated 2018).
Entries after “also recorded” stand apart in the source; their conditions may differ.

Columns and labels:
[1] = test system: HMC1.1 (KITV560G) cells; test: Proliferation assay (MTS cell viability) on HMC1.1 cells; assay type: cell-based, human
Method: FIG. 5: Antibody modulation of oncogenic KIT. (A) HMC1.1 or HMC1.2 cells were incubated in IMDM 1% serum in the presence of anti-KIT antibodies or control antibody as indicated at 5 μg/mL (light grey) or 50 μg/mL (medium grey) or without antibody (dark grey). Cell viability is expressed in % compared to non treated cells. HMC1.1 or HMC1.2 cells were incubated in IMDM 10% serum in the presence of anti-KIT antibodies or control antibody (10 μg/mL) for 1, 2 or 24 hrs. As indicated and analyzed (B) by FACS using 104D2 anti-KIT antibody or (C) by western blot using anti-KIT and phospho-specific anti-KIT antibodies. (D) Three days treatment with anti-KIT antibodies maintained a low level of KIT on both mastocytoma cell lines.
UT-7 were seeded at 10^4 cells/well and treated for 4 days with 2D1, 3G1, H7 or Bot irrelevant antibody at 5 or 50 μg/mL […] in the presence of EPO or CHO-KL supernatant diluted 500 times. HMC1.1 and 1.2 were treated the same but for 7 days and with 1% SVF instead of 10% and without cytokines. Cell viability was estimated with MTS assay (PROMEGA) as recommended by the manufacturer.

[2] = test system: HMC1.2 (KIT V560G D816V) cells; test: Proliferation assay (MTS cell viability) on HMC1.2 cells
[3] = target: T1, KIT surface level on UT-7/EPO cells (wild type KIT) (Homo sapiens, UniProt P10721); test: Internalization assay: KIT surface level by FACS with 104D2 on UT-7/EPO cells; assay type: cell-based
T1 construct: endogenous in cells; host or cells: UT-7/EPO human erythroleukemic cells

[4] = target: T2, biotinylated KIT-ECD (Homo sapiens, UniProt P10721); test: Affinity measurement using yeast display of scFv with biotinylated KIT-ECD; assay type: binding; conditions: scFv displayed on yeast; for Kd: affinity matured variants, read-out: intrinsic Kd
T2 construct: KIT-ECD, amino acid 26 to 509, P10721 UniProtKB/Swiss-Prot; 6His (C); biotin (label); made in house; host or cells: insect cells (High Five, baculovirus)
Excerpt: Cells were then put on ice, washed with ice cold FACS buffer and bound antigen was detected with Streptavin conjugated to PE.

T1 sequence (P10721 26-976): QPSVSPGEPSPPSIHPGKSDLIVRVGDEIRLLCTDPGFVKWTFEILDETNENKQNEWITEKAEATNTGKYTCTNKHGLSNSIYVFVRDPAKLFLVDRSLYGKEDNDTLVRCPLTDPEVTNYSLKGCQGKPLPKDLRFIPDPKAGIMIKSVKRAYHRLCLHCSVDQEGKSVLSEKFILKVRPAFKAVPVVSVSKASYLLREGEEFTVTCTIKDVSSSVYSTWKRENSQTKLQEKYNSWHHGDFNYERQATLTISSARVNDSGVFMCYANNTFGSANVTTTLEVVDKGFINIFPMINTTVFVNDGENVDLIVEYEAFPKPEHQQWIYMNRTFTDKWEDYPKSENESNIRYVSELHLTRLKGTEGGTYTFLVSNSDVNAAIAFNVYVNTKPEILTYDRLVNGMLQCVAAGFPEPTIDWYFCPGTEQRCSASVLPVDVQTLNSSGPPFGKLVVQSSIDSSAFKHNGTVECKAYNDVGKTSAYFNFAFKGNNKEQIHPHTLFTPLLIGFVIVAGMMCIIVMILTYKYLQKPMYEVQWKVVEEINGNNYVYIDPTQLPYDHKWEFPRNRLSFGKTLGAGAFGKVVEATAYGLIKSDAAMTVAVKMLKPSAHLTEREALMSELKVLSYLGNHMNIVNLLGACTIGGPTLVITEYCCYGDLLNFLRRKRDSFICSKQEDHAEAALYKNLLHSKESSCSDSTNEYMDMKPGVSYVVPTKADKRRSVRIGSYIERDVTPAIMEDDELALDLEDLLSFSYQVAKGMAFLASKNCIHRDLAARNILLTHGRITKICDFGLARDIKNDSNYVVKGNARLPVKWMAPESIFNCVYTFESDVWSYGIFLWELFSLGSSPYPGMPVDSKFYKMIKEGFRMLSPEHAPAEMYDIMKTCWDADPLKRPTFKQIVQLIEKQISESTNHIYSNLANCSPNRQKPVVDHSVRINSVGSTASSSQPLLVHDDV
T2 sequence (P10721 26-509): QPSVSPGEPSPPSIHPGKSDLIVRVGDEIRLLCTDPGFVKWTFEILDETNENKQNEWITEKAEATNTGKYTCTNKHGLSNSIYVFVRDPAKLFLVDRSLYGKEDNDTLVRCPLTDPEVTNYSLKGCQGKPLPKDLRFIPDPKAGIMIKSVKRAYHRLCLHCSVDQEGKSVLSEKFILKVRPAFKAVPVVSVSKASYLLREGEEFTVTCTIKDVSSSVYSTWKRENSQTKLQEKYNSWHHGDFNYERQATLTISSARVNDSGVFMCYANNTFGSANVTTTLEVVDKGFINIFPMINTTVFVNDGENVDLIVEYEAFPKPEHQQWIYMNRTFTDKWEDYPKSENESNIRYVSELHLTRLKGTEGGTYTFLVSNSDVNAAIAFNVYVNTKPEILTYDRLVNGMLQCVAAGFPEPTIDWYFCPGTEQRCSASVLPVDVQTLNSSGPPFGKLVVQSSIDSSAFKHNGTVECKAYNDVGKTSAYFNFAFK

## Cc1nc(Nc2ncc(C(=O)Nc3c(C)cccc3Cl)s2)cc(N2CCN(CCO)CC2)n1 [dasatinib, N-(2-chloro-6-methylphenyl)-2-[[6-[4-(2-hydroxyethyl)-1-piperazinyl]-2-methyl-4-pyrimidinyl]amino]-5-thiazole-carboxamide monohydrate]
[1]
  toxicity of TKI to HMC1.1 cells: toxic to HMC1.1 cells
[2]
  toxicity of TKI to HMC1.2 cells: toxic to HMC1.2 cells

## Cc1ccc(NC(=O)c2ccc(CN3CCN(C)CC3)cc2)cc1Nc1nccc(-c2cccnc2)n1 [imatinib, 4-[(4-methylpiperazin-1-yl)methyl]-N-(4-methyl-3-{[4-(pyridin-3-yl)pyrimidin-2-yl]amino}phenyl)benzamide]
[1]
  toxicity of TKI to HMC1.1 cells: toxic to HMC1.1 cells
[3]; UT-7/EPO cells with EPO, Imatinib 1 μM, 4 hrs
  KIT surface levels, imatinib treatment alone: decreased KIT surface levels; also recorded: reduced KIT level at the cell surface
[3]; UT-7/EPO cells, imatinib with SCF
  effect on SCF-induced KIT surface level decrease: inhibited SCF-induced KIT surface level decrease
[2]
  toxicity of TKI to HMC1.2 cells: resistance of the D816V mutant to imatinib

B1: 3G1-A2: affinity matured variant of 3G1, same VH (SEQ ID NO: 9), VL SEQ ID NO: 30 (antibody, V domains shown)
VH: MAQVQLVESWGGVAQPGRSLRLSCAASGFTFSSFAMHWVRQAPGKGLEWVAVTSYDGSNEYYADSVKGRFTISRDNSKNTLYLQMNSLRAEDTAVYYCAKAMVRGVTFGDLDYWGQGTLVTVSS
VL: SSELTQDPAVSVALGQTVRKTCQGDSLKSYYASWYQQKPGQAPVLVIYGENSRPSGIPDRFSGSSSGNTASLTITGAQAEDEADYYCCSRATGGYHRIFGGGTKLTVLG
modifications: Synthetic 3G1 VH chain; Synthetic 3G1-A2 VL chain
[4]
  concentration of Ag at which saturation is reached: 10 nM
  Kd: 1.7 nM

B2: 2D1-C7: affinity matured variant of 2D1, same VH (SEQ ID NO: 1), VL SEQ ID NO: 26 (antibody, V domains shown)
VH: MAQVKLQESGGGLVQPGGSLRLSCAASGFTFDSYAMSWVRQAPGKGLEWVSYITSSSSTIYYVDSVKGRFTISRDNAKNSLYLQMNSLRDEDTAVYYCARLRNSEGYWYFDLWGRGTLVTVSS
VL: SQSVLTQDPAVSVALGQTVRITCQGDSLRSYYASWYQQKPGQAPLLVMYGENIRPSGIPDRFSGSTSGNSASLTITGAQAEDEADYYCNSRDSSGNHLNWVFGGGTKLTVLG
modifications: Synthetic 2D1 VH chain; Synthetic 2D1-C7 VL chain
[4]
  concentration of Ag at which saturation is reached: 10 nM
  Kd: 4.2 nM
